Reference: patent US10259815B2, “Gabaergic ligands and their uses” (UWM Research Foundation, Inc., priority 2015, dated 2019)
Entries after “also recorded” stand apart in the source; their conditions may differ.

Tests used:
Assay type in all cases: in vivo
Male Sprague-Dawley rats [1] = assay: von Frey filament test in spinal nerve ligated (SNL) rats
Method: FIG. 11 is a graph of time versus withdrawal threshold for KRM-II-81, Gabapentin, and vehicle, showing the effect of KRM-II-81 on antihyperalgesia in the von Frey filament assay. Male Sprague-Dawley rats (n=5) were dosed i.p. either vehicle, KRM-II-81 (30 mg/kg), or gabapentin (50 mg/kg) and tested in the von Frey filament assay after undergoing SNL 90 days prior. Results were analyzed using ANOVA (Dunnett's test: *P<0.05).
The von Frey filament test is used to test for antihyperalgesia, or an increased sensitivity to pain. […] The von Frey filaments are used to apply pressure to the forelimbs of test subjects at set amounts. When pressure becomes too great, the forelimb is withdrawn and the amount of force applied recorded. The spinal nerve ligation induced hyperalgesia, reducing the amount of force a limb can take before being withdrawn.
Test compounds were given to test the effectiveness of combating the hyperalgesic effect of SNL. Male Sprague-Dawley rats went through SNL at least 90 days prior to the von Frey testing. Rats were first tested without given an injection to determine a baseline. Following baseline establishment, rats (n=5 for all groups) were dosed i.p. with vehicle (1% carboxymethyl cellulose), KRM-II-81 (30 mg/kg), or gabapentin (50 mg/kg). Subjects were then tested every hour for four hours to determine the antihyperalgesic effect of the test compounds. For testing, pressure using von Frey filaments was applied to the forelimb of the rat. Pressure was increased until the limb was withdrawn, and the amount of pressure was recorded.

Male CD-1 mice = assay: Maximal electroshock (MES)-induced convulsion protection; conditions: i.p. 30 minutes prior to test
Method: Male CD-1 mice (n=10) were dosed i.p. 30 minutes prior to being tested. Results were analyzed using ANOVA (Dunnett's test versus vehicle: *P<0.05).
The maximal electroshock (MES) assay is designed to determine how well a test compound can prevent seizures induced by applying a voltage stimuli to a mouse.
Mice were subjected to electrical induced tonic seizures and examined for anticonvulsant effects 30 minutes after treatment. Mice were then given a 7 mA electroshock using a Wahlquist Model H for 0.2 seconds and observed for the presence or absence of seizure activity. Each mouse is tested only once and euthanized immediately following the test.

Mice = assay: scMET test for anticonvulsant activity, mice
Method: Mice were then dosed i.p. with 5, 10, 25, or 50 mg/kg of KRM-II-81.

Male Sprague-Dawley rats [2] = assay: Vogel conflict procedure; conditions: i.p. 30 minutes prior; KRM-II-81 significant at 10 mg/kg; chlordiazepoxide 20 mg/kg
Method: FIG. 10 is a graph of the concentration of KRM-II-81 versus percent of control for KRM-II-81 analyzed in the Vogel conflict procedure. After a baseline was established using a vehicle (1% 2-hydroxyethyl cellulose), male Sprague-Dawley rats (n=6-8) were dosed i.p. with either KRM-II-81 (3, 10, 30, or 60 mg/kg) or chlordiazepoxide (20 mg/kg) 30 minutes prior to testing. Results were analyzed using ANOVA (Dunnett's test: *P<0.05; Student t-test: **P<0.05).
Subjects are withheld from water prior to testing. Once given water during testing, they will either be unpunished, where they are free to drink without consequence, or punished, where a small electrical shock is applied after every 20th lick. In vehicle punished, is it is expected that the rats hesitate from drinking due to the anxiousness of being shocked. When given an anxiolytic, the […] will continue to drink water despite the electrical shock.
Experiments were conducted as described in the protocol of Alt et al. (Neuropharmacology 2007, 52, 1482-1487). […]
Apparatus. […] All events were controlled and licking data was recorded by a Compaq computer running MED-PC Version IV (Med Associates Inc., Georgia, Vt., USA).
Sipper tube training. […] The six minutes was broken into two components, the first three minutes was recorded as the unpunished component and the second three minutes were recorded as the punished component. […]

Which “statistical significance of antihyperalgesic effect” value (Male Sprague-Dawley rats [1]; KRM-II-81 30 mg/kg at one hour, gabapentin 50 mg/kg) does the source give for `C#Cc1ccc2c(c1)C(c1ccccn1)=NCc1c(-c3cnco3)ncn1-2` [KRM-II-81, 5-(8-Ethynyl-6-(pyridin-2-yl)-4H-benzo[f]imidazo[1,5-a][1,4]diazepin-3-yl)oxazole] here?
Its value is “able to reach significance”.

And the “antihyperalgesic activity, von Frey after SNL” value (Male Sprague-Dawley rats [1]; KRM-II-81 30 mg/kg, gabapentin 50 mg/kg i.p.)?
Its value is “active as antihyperalgesics”.

What about the “pain threshold (force before removing paw)” value (Male Sprague-Dawley rats [1]; from 1-2 hours, vehicle ˜5 g) of the same compound?
Its value is ~12 g.

And the “protection against MES-induced seizures” value (Male CD-1 mice)?
Its value is “greater effectiveness than HZ-166; also recorded: fully protected against seizure induction”.

What about the “Protected (animals protected/tested)” value (Mice; Dose 5 mg/kg i.p.) of the same compound?
Its value is 0/8.

What about the “Protected (animals protected/tested)” value (Mice; Dose 10 mg/kg i.p.) of the same compound?
Its value is 5/8.

And the “Protected (animals protected/tested)” value (Mice; Dose 25 mg/kg i.p.)?
Its value is 7/8.

What about the “Protected (animals protected/tested)” value (Mice; Dose 50 mg/kg i.p.) of the same compound?
The value was 8/8.

And the ED50 (Mice; Mus musculus, ip, half hour time point, mice)?
The ED50 was 10.9 mg/kg.

And the “punished licking compared to control” value (Male Sprague-Dawley rats [2])?
Its value is “significant increase in punished licking”.
